Assay: Surface tension of SDS solution after repeated additions of mesoporous MCM particles (surfactant trapping)
Type: physicochemical
Settings: pure SDS solution (8.2 mM), before addition of MCM particles
Experimental: Anionic mesoporous nanoparticles (MCM) were suspended into water, wetted, and separated from free water by centrifugation. Pure sodium dodecyl sulphate (SDS) solution (8.2 mM) provides a starting surface tension of about 36.5 mN/m. Per 1 g of MCM particles, 15 mL of SDS is added, resulting in an increase of the surface tension to 45 mN/m. Second, third, and fourth additions result in 57.5 mN/m, 66.8 mN/m, and 70.5 mN/m, respectively. After four mesoporous particle additions, the pure water value is already approached. This is illustrated in FIG. 1. Such non-limiting methods have been unexpectedly discovered to be useful for reliably and predictably preparing a stable nanoparticle suspension of a poorly soluble active ingredient. Cationic mesoporous nanoparticles (MCM) are suspended in water, wetted, and separated from free water by centrifugation. Pure sodium dodecyl sulphate (SDS) solution (8.2 mM) provides a starting surface tension of about 36.5 mN/m. Per 1 g of MCM particles, 15 mL of SDS is added, resulting in an increase of the surface tension to 40 mN/m. Second and third additions result in 54.0 mN/m and 70.0 mN/m, respectively. After three mesoporous particle additions, the pure water value is already approached. This is illustrated in FIG. 2. […]

- starting surface tension: about 36.5 mN/m
SMILES: CCCCCCCCCCCCOS(=O)(=O)[O-].[Na+] [sodium dodecyl sulphate (SDS), sodium dodecyl sulphate]

Source: patent US20170252446A1, “USE OF MESO- AND NANOPOROUS MATERIAL FOR SURFACTANT TRAPPING IN NANOPARTICLE SUSPENSIONS” (Therakine BioDelivery GmbH, priority 2014, published 2017)
